For assay [1], the target named is S. aureus RNA polymerase core enzyme, S. aureus σ^A (Staphylococcus aureus, UniProt P47768+Q2G0N5). In words: Fluorescence-detected RNA polymerase assay, S. aureus RNA polymerase. The format is biochemical. The settings on record: read-out: IC50 S. aureus RNAP.
Assay [2] deals with Burkholderia pseudomallei Human/Blood/OH/US/1994. In words: microbe, parasite or virus in culture. The format is cell-based. The following applies: Burkholderia pseudomallei, read-out: MIC B. pseudomallei Human/Blood/OH.
The target of assay [3] is M. tuberculosis RNA polymerase core enzyme, M. tuberculosis σ^A (Mycobacterium tuberculosis, UniProt P9WGY7+P9WGY9). The assay can be described thus: Fluorescence-detected RNA polymerase assay, M. tuberculosis RNA polymerase. Type of assay: biochemical. The following applies: read-out: IC50 M. tuberculosis RNAP.
M. tuberculosis RNA polymerase core enzyme, M. tuberculosis σ^A, sequence (P9WGI1 whole entry): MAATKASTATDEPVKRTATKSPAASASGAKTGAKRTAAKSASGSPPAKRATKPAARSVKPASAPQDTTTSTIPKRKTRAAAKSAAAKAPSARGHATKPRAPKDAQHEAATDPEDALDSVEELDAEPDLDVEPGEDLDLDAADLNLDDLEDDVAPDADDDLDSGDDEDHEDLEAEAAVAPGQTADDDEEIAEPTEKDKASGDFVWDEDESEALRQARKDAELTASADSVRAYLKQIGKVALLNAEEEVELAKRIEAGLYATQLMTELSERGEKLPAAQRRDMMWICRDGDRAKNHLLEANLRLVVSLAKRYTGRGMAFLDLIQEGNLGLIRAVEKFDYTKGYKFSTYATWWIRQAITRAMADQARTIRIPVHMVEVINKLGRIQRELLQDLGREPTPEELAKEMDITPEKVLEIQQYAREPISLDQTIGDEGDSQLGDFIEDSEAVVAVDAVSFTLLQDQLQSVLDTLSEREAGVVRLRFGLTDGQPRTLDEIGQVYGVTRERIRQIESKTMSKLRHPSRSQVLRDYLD
M. tuberculosis RNA polymerase core enzyme, M. tuberculosis σ^A, sequence (P9WGY5 whole entry, further chain): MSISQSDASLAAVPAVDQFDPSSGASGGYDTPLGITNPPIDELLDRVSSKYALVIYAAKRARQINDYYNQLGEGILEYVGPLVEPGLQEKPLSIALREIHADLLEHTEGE
M. tuberculosis RNA polymerase core enzyme, M. tuberculosis σ^A, sequence (P9WGY7 whole entry): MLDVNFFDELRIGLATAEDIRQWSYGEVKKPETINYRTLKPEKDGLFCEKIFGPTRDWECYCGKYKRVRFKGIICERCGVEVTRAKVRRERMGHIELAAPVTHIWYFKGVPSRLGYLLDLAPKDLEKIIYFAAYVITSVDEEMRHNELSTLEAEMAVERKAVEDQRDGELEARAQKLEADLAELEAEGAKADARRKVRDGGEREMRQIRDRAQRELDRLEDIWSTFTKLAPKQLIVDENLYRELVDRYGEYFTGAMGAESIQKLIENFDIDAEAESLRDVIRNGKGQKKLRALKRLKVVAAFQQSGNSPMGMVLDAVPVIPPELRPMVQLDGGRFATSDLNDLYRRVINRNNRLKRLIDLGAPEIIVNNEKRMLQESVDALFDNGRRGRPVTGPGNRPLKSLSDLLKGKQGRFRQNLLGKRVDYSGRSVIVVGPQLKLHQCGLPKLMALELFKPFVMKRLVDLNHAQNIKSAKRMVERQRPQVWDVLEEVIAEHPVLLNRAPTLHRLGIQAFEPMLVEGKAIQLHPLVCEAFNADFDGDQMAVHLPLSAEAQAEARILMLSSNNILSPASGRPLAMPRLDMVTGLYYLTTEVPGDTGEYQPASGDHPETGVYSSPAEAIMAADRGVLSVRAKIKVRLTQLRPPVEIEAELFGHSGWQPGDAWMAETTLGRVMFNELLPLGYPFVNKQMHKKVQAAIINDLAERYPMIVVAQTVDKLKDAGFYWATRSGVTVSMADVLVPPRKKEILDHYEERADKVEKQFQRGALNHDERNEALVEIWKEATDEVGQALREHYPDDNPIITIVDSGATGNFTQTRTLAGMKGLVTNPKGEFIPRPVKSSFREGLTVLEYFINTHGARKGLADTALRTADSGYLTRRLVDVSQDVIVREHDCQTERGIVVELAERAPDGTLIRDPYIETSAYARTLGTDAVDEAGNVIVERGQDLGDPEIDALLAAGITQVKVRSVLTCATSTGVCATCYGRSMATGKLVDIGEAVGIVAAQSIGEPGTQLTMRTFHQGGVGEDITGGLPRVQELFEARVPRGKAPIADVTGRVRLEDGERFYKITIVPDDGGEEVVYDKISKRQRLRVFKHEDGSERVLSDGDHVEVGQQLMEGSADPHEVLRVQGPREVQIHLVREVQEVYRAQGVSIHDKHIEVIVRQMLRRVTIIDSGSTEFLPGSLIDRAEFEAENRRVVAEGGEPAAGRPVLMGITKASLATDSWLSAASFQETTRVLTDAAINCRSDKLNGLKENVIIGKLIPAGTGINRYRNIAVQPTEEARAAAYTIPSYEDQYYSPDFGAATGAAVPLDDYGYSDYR
M. tuberculosis RNA polymerase core enzyme, M. tuberculosis σ^A, sequence (P9WGY9 whole entry): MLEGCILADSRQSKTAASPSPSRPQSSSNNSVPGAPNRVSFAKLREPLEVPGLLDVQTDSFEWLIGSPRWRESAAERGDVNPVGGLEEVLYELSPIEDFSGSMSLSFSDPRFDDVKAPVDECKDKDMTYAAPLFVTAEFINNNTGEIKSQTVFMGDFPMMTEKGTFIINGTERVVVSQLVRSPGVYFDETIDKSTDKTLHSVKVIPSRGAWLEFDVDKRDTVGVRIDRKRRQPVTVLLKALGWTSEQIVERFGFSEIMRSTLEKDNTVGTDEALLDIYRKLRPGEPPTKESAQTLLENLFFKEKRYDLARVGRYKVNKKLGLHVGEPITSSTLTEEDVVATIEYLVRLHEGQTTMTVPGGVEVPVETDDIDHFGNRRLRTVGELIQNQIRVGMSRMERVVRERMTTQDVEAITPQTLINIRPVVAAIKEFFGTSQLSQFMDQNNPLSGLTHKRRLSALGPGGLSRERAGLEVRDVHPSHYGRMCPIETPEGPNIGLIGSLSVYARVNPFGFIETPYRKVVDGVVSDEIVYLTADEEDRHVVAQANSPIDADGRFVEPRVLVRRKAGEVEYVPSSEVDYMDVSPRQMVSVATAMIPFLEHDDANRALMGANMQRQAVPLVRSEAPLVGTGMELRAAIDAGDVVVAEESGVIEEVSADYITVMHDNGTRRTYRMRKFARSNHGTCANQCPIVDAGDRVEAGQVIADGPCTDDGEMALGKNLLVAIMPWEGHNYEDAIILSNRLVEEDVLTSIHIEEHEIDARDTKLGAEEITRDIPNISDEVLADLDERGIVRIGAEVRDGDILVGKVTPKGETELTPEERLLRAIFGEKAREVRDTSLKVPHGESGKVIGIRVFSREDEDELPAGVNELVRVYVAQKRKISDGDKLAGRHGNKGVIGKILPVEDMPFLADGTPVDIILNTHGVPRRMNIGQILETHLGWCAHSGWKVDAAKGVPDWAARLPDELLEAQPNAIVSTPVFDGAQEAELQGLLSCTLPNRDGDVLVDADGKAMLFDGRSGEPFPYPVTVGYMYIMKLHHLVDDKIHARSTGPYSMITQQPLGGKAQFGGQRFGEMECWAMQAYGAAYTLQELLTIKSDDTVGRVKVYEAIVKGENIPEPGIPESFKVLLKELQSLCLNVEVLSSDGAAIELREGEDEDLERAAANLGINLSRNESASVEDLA
M. tuberculosis RNA polymerase core enzyme, M. tuberculosis σ^A, sequence (P9WGZ1 whole entry, further chain): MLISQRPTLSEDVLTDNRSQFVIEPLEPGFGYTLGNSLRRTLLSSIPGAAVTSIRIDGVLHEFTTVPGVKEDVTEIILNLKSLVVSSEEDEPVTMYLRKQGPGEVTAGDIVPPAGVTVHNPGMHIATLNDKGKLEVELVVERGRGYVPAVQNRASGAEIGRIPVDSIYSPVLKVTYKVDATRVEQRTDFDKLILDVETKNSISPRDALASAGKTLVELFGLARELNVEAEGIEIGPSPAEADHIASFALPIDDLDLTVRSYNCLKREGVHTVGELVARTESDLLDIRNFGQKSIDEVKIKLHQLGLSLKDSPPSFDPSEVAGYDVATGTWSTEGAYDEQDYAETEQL
In assay [4] the test system is Escherichia coli D21f2tolC. In words: MIC, spiral gradient endpoint assay, E. coli D21f2tolC. Type of assay: cell-based. The settings on record: Escherichia coli, D21F2TOLC, read-out: MIC E. coli D21f2toIC.
Assay [5] concerns the target E. coli RNA polymerase σ^70 holoenzyme (Escherichia coli, UniProt P0A8T7+P0A8V2). The assay can be described thus: Fluorescence-detected RNA polymerase assay, E. coli RNA polymerase. The format is biochemical. The settings on record: read-out: IC50 E. coli RNAP.
Assay [6] has as its system Acinetobacter baumannii ATCC 19606. The assay can be described thus: MIC, spiral gradient endpoint assay, A. baumannii. Type of assay: cell-based. The settings on record: ATCC19606; Acinetobacter baumannii ATCC 19606.
Assay [7] has as its system Mycobacterium tuberculosis H37Rv. In words: MIC, microplate Alamar Blue assay, M. tuberculosis. The format is cell-based.
Assay [8] relates to Staphylococcus aureus ATCC 12600. The assay can be described thus: MIC, spiral gradient endpoint assay, S. aureus ATCC 12600. The format is cell-based. The following applies: ATCC12600; Staphylococcus aureus ATCC 12600.
Assay [9] deals with Bacillus anthracis Vollum 1b. In words: microbe, parasite or virus in culture. The format is cell-based. The following applies: Bacillus anthracis, VOLLUM1B, read-out: MIC B. anthracis Vollum-1b.
A further assay relates to Burkholderia mallei CHN7. In words: microbe, parasite or virus in culture. The format is cell-based. The following applies: Burkholderia mallei, CHN7, read-out: MIC B. mallei CHN7.
Another assay deals with Yersinia pestis C092. In words: microbe, parasite or virus in culture. Type of assay: cell-based. The following applies: Yersinia pestis, C092, read-out: MIC Y. pestis C092.
Assay [10] deals with Francisella tularensis SCHU4. The assay can be described thus: microbe, parasite or virus in culture. The settings on record: Francisella tularensis, SCHU4, read-out: MIC F. tularensis SCHU4. Type of assay: cell-based.
The subject of a further assay is Brucella melitensis 16M. The assay can be described thus: microbe, parasite or virus in culture. Type of assay: cell-based. The following applies: Brucella melitensis, 16M, read-out: MIC B. melitensis 16M.

One may read the IC50 as the concentration needed to halve the response being measured.

In the case of `CCCCCCc1ccc(C=C(C)C(=O)c2c(O)cc(C(C)CC/C=C/NC(=O)OC)oc2=O)s1` (mixture of isomers) [APY15, methyl (E)-5-(3-((E/Z)-3-(5-hexylthiophen-2-yl)-2-methylacryloyl)-4-hydroxy-2-oxo-2H-pyran-6-yl)hex-1-enylcarbamate], the IC50 in [1] was 20 nM; in assay [3], 200 nM; in [5] it was 5 nM. The MIC in assay [2] is 3 µg/mL; in [4], 0.08 µg/mL; in assay [6], 6 µg/mL; in [7], above 50 µg/mL; in [8], 0.9 µg/mL; in assay [9], 0.4 µg/mL. Further, the MIC was 0.8 µg/mL in the assay with Burkholderia mallei CHN7, 3 µg/mL with Yersinia pestis C092, 0.4 µg/mL in assay [10] and 0.4 µg/mL in the assay with Brucella melitensis 16M.

In the case of `CCCCc1ccc(C=C(C)C(=O)c2c(O)cc(C(C)CC/C=C/NC(=O)OC)oc2=O)s1` (mixture of isomers) [APY16, methyl (E)-5-(3-((E/Z)-3-(5-butylthiophen-2-yl)-2-methylacryloyl)-4-hydroxy-2-oxo-2H-pyran-6-yl)hex-1-enylcarbamate], the IC50 is 100 nM in assay [1], 300 nM in assay [3] and 30 nM in assay [5]. Moreover, the MIC in [2] was 6 µg/mL; in assay [4], 0.1 µg/mL; in assay [6], 20 µg/mL; in assay [7] it was 30 µg/mL; in assay [8], 0.6 µg/mL; in [9], 2 µg/mL. Also, the MIC with Burkholderia mallei CHN7 was found to be 2 µg/mL; in the assay with Yersinia pestis C092, 10 µg/mL; in [10], 0.8 µg/mL; with Brucella melitensis 16M it was 0.8 µg/mL.

As to `CCCCCCc1ccc(C=C(C)C(=O)c2c(O)cc(C(C)CC/C=C/NC(=O)OC)oc2=O)o1` (mixture of isomers) [APY17, methyl (E)-5-(3-((E/Z)-3-(5-hexylfuran-2-yl)-2-methylacryloyl)-4-hydroxy-2-oxo-2H-pyran-6-yl)hex-1-enylcarbamate], the values for the IC50 in assay [1], in assay [3] and in [5] were 100 nM, 900 nM and 20 nM, respectively. In addition, the MIC came to 30 µg/mL in assay [2]; 0.1 µg/mL in [4]; 10 µg/mL in assay [6]; 10 µg/mL in assay [7]; 8 µg/mL in assay [8]; 2 µg/mL in [9]. The MIC in the assay on Burkholderia mallei CHN7 was found to be 3 µg/mL; in the assay on Yersinia pestis C092 it was 10 µg/mL; in assay [10], 0.8 µg/mL; with Brucella melitensis 16M, 2 µg/mL.

For `CCCCCCc1csc(C=C(C)C(=O)c2c(O)cc(C(C)CC/C=C/NC(=O)OC)oc2=O)c1` (mixture of isomers) [APY18, methyl (E)-5-(3-((E/Z)-3-(4-hexylthiophen-2-yl)-2-methylacryloyl)-4-hydroxy-2-oxo-2H-pyran-6-yl)hex-1-enylcarbamate], the IC50 came out at 70 nM in assay [1], 600 nM in assay [3] and 7 nM in assay [5]. Moreover, the MIC was determined as 6 µg/mL in assay [2]; 0.07 µg/mL in assay [4]; 4 µg/mL in assay [6]; 10 µg/mL in assay [7]; 4 µg/mL in assay [8]; 2 µg/mL in assay [9]. The MIC stood at 2 µg/mL in the assay on Burkholderia mallei CHN7, 6 µg/mL in the assay on Yersinia pestis C092, 3 µg/mL in [10] and 0.8 µg/mL in the assay with Brucella melitensis 16M.

On to `CCCCCCc1coc(C=C(C)C(=O)c2c(O)cc(C(C)CC/C=C/NC(=O)OC)oc2=O)c1` (mixture of isomers) [APY19, methyl (E)-5-(3-((E/Z)-3-(4-hexylfuran-2-yl)-2-methylacryloyl)-4-hydroxy-2-oxo-2H-pyran-6-yl)hex-1-enylcarbamate], for which the IC50 is 30 nM in assay [1], 400 nM in [3] and 7 nM in assay [5]. Moreover, the MIC in assay [2] turned out to be 3 µg/mL; in [4], 0.1 µg/mL; in assay [6], 10 µg/mL; in [7], 6 µg/mL; in [8] it was 2 µg/mL; in assay [9] it was 2 µg/mL. The MIC in the assay with Burkholderia mallei CHN7 turned out to be 0.8 µg/mL; in the assay on Yersinia pestis C092, 6 µg/mL; in assay [10], 6 µg/mL; with Brucella melitensis 16M it was 0.4 µg/mL.

As to `CCCCCCc1ccc2oc(C=C(C)C(=O)c3c(O)cc(C(C)CC/C=C/NC(=O)OC)oc3=O)cc2c1` (mixture of isomers) [APY20, methyl (E)-5-(3-((E/Z)-3-(5-hexylbenzofuran-2-yl)-2-methylacryloyl)-4-hydroxy-2-oxo-2H-pyran-6-yl)hex-1-enylcarbamate], the IC50 turned out to be 20 nM in assay [1], 300 nM in assay [3] and 4 nM in assay [5]. Besides, the MIC was above 50 µg/mL in [2]; 0.3 µg/mL in assay [4]; above 40 µg/mL in assay [6]; 6 µg/mL in assay [7]; above 40 µg/mL in [8]; 2 µg/mL in [9]. For the same compound, the MIC with Burkholderia mallei CHN7 is 2 µg/mL; with Yersinia pestis C092 it was above 50 µg/mL; in assay [10], 0.8 µg/mL; with Brucella melitensis 16M, 0.8 µg/mL.

On to `CCCCc1ccc(C=C(CC)C(=O)c2c(O)cc(C(C)CC/C=C/NC(=O)OC)oc2=O)s1` (mixture of isomers) [APY21, methyl (E)-5-(3-((E/Z)-2-((5-butylthiophen-2-yl)methylene)butanoyl)-4-hydroxy-2-oxo-2H-pyran-6-yl)hex-1-enylcarbamate], for which the IC50 worked out at 500 nM in assay [1], 300 nM in assay [3] and 40 nM in assay [5]. For the same compound, the MIC in assay [2] is 10 µg/mL; in [4], 0.3 µg/mL; in assay [6] it was 20 µg/mL; in [7], 10 µg/mL; in assay [8] it was 2 µg/mL; in assay [9], 3 µg/mL. The MIC is 6 µg/mL with Burkholderia mallei CHN7, above 50 µg/mL with Yersinia pestis C092, 3 µg/mL in [10] and 2 µg/mL in the assay on Brucella melitensis 16M.

Take `CCCCc1ccc2oc(C=C(C)C(=O)c3c(O)cc(C(C)CC/C=C/NC(=O)OC)oc3=O)cc2c1` (mixture of isomers) [APY25, methyl (E)-5-(3-((E/Z)-3-(5-butylbenzofuran-2-yl)-2-methylacryloyl)-4-hydroxy-2-oxo-2H-pyran-6-yl)hex-1-enylcarbamate]: the IC50 in [1] was found to be 70 nM; in assay [3], 600 nM; in assay [5], 10 nM. Also, the MIC was 6 µg/mL in [2]; 0.3 µg/mL in [4]; above 40 µg/mL in assay [6]; 6 µg/mL in assay [7]; 3 µg/mL in assay [8]; 0.2 µg/mL in assay [9]. In addition, the MIC came to 2 µg/mL in the assay on Burkholderia mallei CHN7, 30 µg/mL in the assay with Yersinia pestis C092, 3 µg/mL in assay [10] and 0.8 µg/mL with Brucella melitensis 16M.

As for `CCCCc1cc(C)c(C=C(C)C(=O)c2c(O)cc(C(C)CC/C=C/NC(=O)OC)oc2=O)s1` (mixture of isomers) [APY75, methyl (E)-5-(3-((E/Z)-3-(5-butyl-3-methylthiophen-2-yl)-2-methylacryloyl)-4-hydroxy-2-oxo-2H-pyran-6-yl)hex-1-enylcarbamate], the IC50 in assay [1] turned out to be 80 nM; in assay [3], 60 nM; in assay [5], 9 nM. Further, the MIC is 6 µg/mL in assay [2]; 0.1 µg/mL in assay [4]; 4 µg/mL in [6]; 30 µg/mL in assay [7]; 0.3 µg/mL in assay [8]; 0.8 µg/mL in [9]. The results for the MIC (with Burkholderia mallei CHN7; in [10]; with Brucella melitensis 16M) were 6 µg/mL, 10 µg/mL and 3 µg/mL, respectively.

As to `COC(=O)N/C=C/CCC(C)c1cc(O)c(C(=O)C(C)=Cc2sc(CCC(C)C)cc2C)c(=O)o1` (mixture of isomers) [APY76, methyl (E)-5-(3-((E/Z)-3-(5-isopentyl-3-methylthiophen-2-yl)-2-methylacryloyl)-4-hydroxy-2-oxo-2H-pyran-6-yl)hex-1-enylcarbamate], the concentration for half-maximal inhibition (IC50) in [1] stood at 80 nM; in assay [3] it was 50 nM; in assay [5], 3 nM. The MIC in assay [2] came to 6 µg/mL; in assay [4], 0.09 µg/mL; in assay [6] it was 4 µg/mL; in assay [7], 30 µg/mL; in [8], 0.2 µg/mL; in assay [9] it was 0.4 µg/mL. Moreover, the MIC was 6 µg/mL with Burkholderia mallei CHN7, 10 µg/mL in [10] and 3 µg/mL in the assay on Brucella melitensis 16M.

Regarding `CCCCc1ccc(C=C(C)C(=O)c2c(O)cc(C(C)CC/C=C/NC(=O)OC)oc2=O)c(C)c1` (mixture of isomers) [APY87, methyl ((1E)-5-(3-(3-(4-butyl-2-methylphenyl)-2-methylacryloyl)-4-hydroxy-2-oxo-2H-pyran-6-yl)hex-1-en-1-yl)carbamate], the IC50 was determined as 70 nM in assay [1], 30 nM in assay [3] and 10 nM in assay [5]. Further, the MIC in [4] is 0.2 µg/mL; in assay [6], above 40 µg/mL; in assay [7] it was above 50 µg/mL; in [8] it was 1 µg/mL.

Source of the values: patent US9592221B2, “Antibacterial agents: aryl myxopyronin derivatives” (priority 2012, dated 2017).
